Results reported in paper PMC13580833, “Investigation of Thiazolidine‐2,4‐Dione Derivatives as Acetylcholinesterase Inhibitors: Synthesis, In Vitro Biological Activities and In Silico Studies” (ChemistryOpen, 2025).

Experiments:
[1] = tested on: PC12 cells; assay: MTT assay, Aβ1‐42‐induced toxicity in PC12 cells; format: cell-based, Rattus norvegicus; conditions: 0.31–20 μM CHT1, 12, 24 and 48 h
Description: (§1) Rattus norvegicus pheochromocytoma PC12 cells (Pastor Institute, Iran) were cultured in Dulbecco's modified Eagle's medium (DMEM) supplemented with 10 % fetal bovine serum (FBS) and 1 % penicillin/streptomycin (Gibco) at 37 °C with 5 % CO2. PC12 cells were treated with different concentrations of CHT1 for 12, 24, or 48 hours, and promising results were obtained.
(§2) In addition, the Aβ1‐42 peptides were diluted in water and preaggregated at 37 °C for 7 days before use. The cellular AD model was successfully constructed in vitro by incubating PC12 cells with 100 μM aggregated Aβ for 24 hours. DMSO (50 μL) and 0.5 mg/mL MTT (10 μL) stock solution were added to each well for 4 hours of incubation. After 30 minutes, the plates were shaken, and the optical density was measured at 570 nm using an ELISA reader (Biotech). The MTT assay used by Pirali et al.,[23] which underwent slight modifications, yielded promising results.

[2] = MTT assay, Aβ1‐42‐induced toxicity in PC12 cells; format: cell-based, Rattus norvegicus; conditions: rat; PC12 cells, CHT1 20 μM, after 48 h, MTT; read-out: Viability percentage of that of the control
Description: as §1, §2

[3] = Ferric reducing/antioxidant power (FRAP) assay; conditions: ferrous ion equivalents per gram of test compound; triplicate
Description: The ferric reducing/antioxidant power (FRAP) assay was performed based on a previous study.[[15a]] […] A standard curve was drawn to analyze different concentrations of ferrous sulfate (0.1–1 mM). The analysis was conducted in triplicates and the value of antioxidant activity results were expressed in mmol ferrous ion equivalents per gram of test compounds (mmol Fe^2+/g).

[4] = target: BChE (Homo sapiens, UniProt P06276); assay: BChE inhibition assay (Ellman's method); format: biochemical
BChE, sequence (P06276 29-602, species assumed): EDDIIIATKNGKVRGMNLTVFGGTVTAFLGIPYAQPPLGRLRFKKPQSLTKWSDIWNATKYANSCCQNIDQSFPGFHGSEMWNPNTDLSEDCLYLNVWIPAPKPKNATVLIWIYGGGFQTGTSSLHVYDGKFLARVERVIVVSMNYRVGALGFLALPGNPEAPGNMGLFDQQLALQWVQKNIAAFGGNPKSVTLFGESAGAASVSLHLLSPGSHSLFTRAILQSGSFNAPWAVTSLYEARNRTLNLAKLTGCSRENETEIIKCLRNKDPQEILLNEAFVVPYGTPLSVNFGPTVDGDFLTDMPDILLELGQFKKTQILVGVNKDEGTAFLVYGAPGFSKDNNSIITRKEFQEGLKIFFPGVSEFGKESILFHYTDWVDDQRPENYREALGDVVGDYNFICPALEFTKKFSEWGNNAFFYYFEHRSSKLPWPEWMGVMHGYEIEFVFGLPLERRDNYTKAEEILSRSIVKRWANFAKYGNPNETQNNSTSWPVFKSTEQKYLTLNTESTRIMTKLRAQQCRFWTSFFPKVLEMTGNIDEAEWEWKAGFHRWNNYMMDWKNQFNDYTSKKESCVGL
Description: The ChEs inhibitory activities based on Ellman's method were assessed using previously described methods.[[15b]] Acetylcholinesterase (electric eel, […]) inhibition assays were conducted with ATCI (10 mM) and DTNB (10 mM). The experiment required adding 50 μL of AChE in Tris‐HCl buffer (pH 8.0), 100 μL substrate, and 50 μL of the sample dissolved in DMSO (10 % in Tris‐HCl buffer) to the wells. For BChE inhibition, mixtures contained 30 μL of 10 mM DTNB, 5 μL of BChE, 30 μL of 10 mM BTChCl (10 mM), and 10 μL of samples.
All samples were dissolved in 10 % DMSO, and the experiment was performed in triplicate.

[5] = tested on: p‐Tau/Tau; assay: Western blot of p‐Tau/Tau in Aβ‐exposed PC12 cells; format: cell-based, Rattus norvegicus; conditions: for Decrease of p‐Tau/Tau compared with the Aβ group: Aβ1‐42 100 μM
Description: (§3) PC12 cells were seeded in a 6‐well plate, treated CHT1 at concentrations of 5 and 8 μM for 24 hours, washed with cold PBS, and lysed with lysis buffer for 30 minutes on ice. After centrifugation at 12,000×g for 10 minutes at 4 °C, the lysates were transferred to new tubes. The Bradford assay was utilized to determine the protein concentration.[24] SDS–PAGE was used to separate the denatured proteins, which were subsequently transferred to PVDF membranes. The membranes were blocked with nonfat dry milk in PBS containing 0.1 % Tween‐20 (PBST) and then incubated overnight at 4 °C with primary antibodies against p‐Taul/Tau, HSP70, and β‐actin as a control. Subsequently, the membranes were exposed to a secondary antibody conjugated with horseradish peroxidase (HRP) for 2 hours at room temperature. Using the densitometric scanning technique in the ImageJ program, the density of the protein bands in the relative direction was determined.

[6] = tested on: PC12 cells; assay: Growth of PC12 cells in response to treatments (Figure 5); format: cell-based, Rattus norvegicus; conditions: CHT1 pretreatment 5 and 8 μM in the presence of Aβ, 24 hours
[7] = tested on: HSP70; assay: Western blot of HSP70 in Aβ‐exposed PC12 cells; format: cell-based, Rattus norvegicus; conditions: for Decrease of HSP70 expression compared with the Aβ group: Aβ1‐42 100 μM
Description: as §3

[8] = Western blotting, CHT1 5 and 8 μM
[9] = PC12 cells, Aβ1‐42 100 μM alone

With COc1ccc(C=C2SC(O)=NC2=O)cc1 [CHT1, 5‐(4‐Methoxybenzylidene)thiazolidine‐2,4‐dione] the “Acute toxicity in PC12 cells” value [1] was “acute toxicity was not observed”, the “Effect of pretreatment on Aβ1‐42‐induced cell death” value ([1]; PC12 cells, Aβ1‐42 100 μM) was “significant reduction in Aβ1‐42‐induced cell death in a dose‐dependent manner” and the viability at 48 h, 20 μM [2] was 66.5%. The “Antioxidant capacity (FRAP)” value [3] was 0.78 mmol Fe^2+/g, the IC50 [4] was 69.1 nM and the “Decrease of p‐Tau/Tau compared with the Aβ group” value ([5]; PC12 cells, 5 μM) was 2.26 fold. For the same molecule, the “Decrease of p‐Tau/Tau compared with the Aβ group” value ([5]; PC12 cells, 8 μM) was 2.01 fold, the “p‐Tau expression level” value [5, 8] was “downregulated” and the “Density of PC12 cells compared with Aβ (100 μM)” value [6] was “increased the density of PC12 cells”. For the same molecule, the “Decrease of HSP70 expression compared with the Aβ group” value (from here on “Decrease of HSP70 expression”) ([7]; PC12 cells, 5 μM) was 2.1 fold, the “Decrease of HSP70 expression” value ([7]; PC12 cells, 8 μM) was 2.26 fold and the HSP70 expression level [7, 8] was “downregulated”.

O=C1N=C(O)SC1=Cc1ccc(Cl)cc1 [CHT2, 5‐(4‐Chlorobenzylidene)thiazolidine‐2,4‐dione] showed an IC50 [4] of 125 nM.

With O=C1NC(=O)C(=Cc2cccc(O)c2)S1 [CHT3, 5‐(3‐Hydroxybenzylidene)thiazolidine‐2,4‐dione] the “Antioxidant capacity (FRAP)” value [3] was 0.41 mmol Fe^2+/g and the IC50 [4] was 81.9 nM.

With O=C1NC(=O)C(=Cc2ccccc2O)S1 [CHT4, 5‐(2‐Hydroxybenzylidene)thiazolidine‐2,4‐dione] the “Antioxidant capacity (FRAP)” value [3] was 0.45 mmol Fe^2+/g and the IC50 [4] was 102 nM.

For O=C1NC(=O)C(=Cc2cccc3ccccc23)S1 [CHT5, 5‐((Naphthalene‐1‐yl)methylene)thiazolidine‐2,4‐dione], the “Antioxidant capacity (FRAP)” value [3] was 0.26 mmol Fe^2+/g and the IC50 [4] was 141 nM.

For COc1cc2c(cc1OC)C(=O)C(CC1CCN(Cc3ccccc3)CC1)C2 (centres unmarked) [Donepezil, donepezil, reference compound], the “Decrease of HSP70 expression” value ([7]; PC12 cells, donepezil 75 μM (positive control)) was 1.92 fold.

In the case of O=C1O[C@H]([C@@H](O)CO)C(O)=C1O [ascorbic acid, reference compound], the “Antioxidant capacity (FRAP)” value [3] is reported as 1.15 mmol Fe^2+/g.

In the case of “amyloid beta 1–42 [Aβ1‐42, reference compound]”, the “p‐Tau/Tau ratio greater than in the control group” value [5, 9] is reported as 4.96 fold and the “HSP70 level greater than in the control group” value [7, 9] is reported as 3.35 fold.
